Measurements reported in a compilation of properties of binary mixtures (doi:10.1007/s10953-016-0490-x).

Experiment: xn = mol fraction of the nth substance listed
Details: 100 kPa

CCOC(C)=O + CCCC[n+]1ccn(C)c1.O=S(=O)([O-])C(F)(F)F
x2 = 0
Details | speed of sound [m/s] | viscosity [mPa·s]
303.15 K | 1118.3 | 0.4
308.15 K | 1096 | 0.37
313.15 K | 1073.7 | 0.35
318.15 K | 1051.7 | 0.34
323.15 K | 1029.5 | 0.33

CCCC[n+]1ccn(C)c1.O=S(=O)([O-])C(F)(F)F + CCOC(C)=O
Details | speed of sound [m/s] | viscosity [mPa·s]
298.15 K, x1 = 0.0991 | 1172.2 | 1.27
298.15 K, x1 = 0.1916 | 1209.8 | 4.59
298.15 K, x1 = 0.3056 | 1252.1 | 10.8
298.15 K, x1 = 0.3978 | 1279.4 | 16
298.15 K, x1 = 0.5067 | 1310.3 | 22
298.15 K, x1 = 0.7138 | 1361.8 | 35
298.15 K, x1 = 0.7987 | 1374.2 | 41.8
298.15 K, x1 = 1 | 1393.2 | 82
303.15 K, x1 = 0.0991 | 1153.5 | 0.99
303.15 K, x1 = 0.1916 | 1191.9 | 3.76
303.15 K, x1 = 0.3056 | 1236.1 | 9
303.15 K, x1 = 0.5067 | 1296.5 | 18.5
303.15 K, x1 = 0.6095 | 1324.9 | 23.6
303.15 K, x1 = 0.7138 | 1349.9 | 29.1
303.15 K, x1 = 0.7987 | 1362.1 | 34.7
303.15 K, x1 = 0.8932 | 1371.6 | 44.9
308.15 K, x1 = 0.0991 | 1132.8 | 0.89
308.15 K, x1 = 0.1916 | 1174 | 3.12
308.15 K, x1 = 0.3056 | 1220.2 | 7.3
308.15 K, x1 = 0.3978 | 1251.5 | 10.8
308.15 K, x1 = 0.5067 | 1282.6 | 15.1
308.15 K, x1 = 0.6095 | 1312.1 | 19.6
308.15 K, x1 = 0.7138 | 1338.2 | 24.6
308.15 K, x1 = 0.7987 | 1351 | 29.1
308.15 K, x1 = 0.8932 | 1359.7 | 37.1
308.15 K, x1 = 1 | 1371.7 | 53
313.15 K, x1 = 0.1916 | 1156.4 | 2.89
313.15 K, x1 = 0.3056 | 1204.4 | 6.6
313.15 K, x1 = 0.3978 | 1237.6 | 9.8
313.15 K, x1 = 0.5067 | 1268.7 | 13.5
313.15 K, x1 = 0.6095 | 1300.4 | 17.1
313.15 K, x1 = 0.7138 | 1326.8 | 20.9
313.15 K, x1 = 0.7987 | 1338.3 | 24.6
313.15 K, x1 = 0.8932 | 1349.5 | 31
318.15 K, x1 = 0.0991 | 1091.7 | 0.79
318.15 K, x1 = 0.3056 | 1188.6 | 5.8
318.15 K, x1 = 0.3978 | 1223.7 | 8.5
318.15 K, x1 = 0.5067 | 1254 | 11.7
318.15 K, x1 = 0.6095 | 1288 | 14.8
318.15 K, x1 = 0.7138 | 1314.3 | 18
318.15 K, x1 = 0.7987 | 1326.4 | 21.1
318.15 K, x1 = 0.8932 | 1337.3 | 26.2
323.15 K, x1 = 0.0991 | 1071.3 | 0.75
323.15 K, x1 = 0.1916 | 1120.7 | 2.26
323.15 K, x1 = 0.3056 | 1172.8 | 5
323.15 K, x1 = 0.3978 | 1210.9 | 7.2
323.15 K, x1 = 0.5067 | 1240.3 | 9.9
323.15 K, x1 = 0.6095 | 1274.9 | 12.9
323.15 K, x1 = 0.7138 | 1303.2 | 15.6
323.15 K, x1 = 1 | 1338.8 | 30.6
